Experiments:
HCT116 cells = assay: IL2 ELISA, dependence of DD-IL2 levels on Shield-1 dose; assay type: cell-based; details: 96-well plate, varying concentrations of Shield-1, DD-IL2 construct, read-out: ECK of Shield-1 (IL2 levels by IL2 ELISA)
From the text: FKBP (L106P) and ecDHFR (R12Y, Y100I) are well-characterized destabilizing domains which can confer instability to fusion partners (e.g., a POI). The instability is reversed by a synthetic ligand named Shield-1 that binds to FKBP; TMP that binds to DHFR. An IL2 polypeptide was linked to either FKBP (L106P) or ecDHFR (R12Y, Y100I). IL2 constructs were cloned into pLVX-IRES-Puro lentiviral vectors. An IL2 signal sequence was inserted at the N terminus of the construct.
To evaluate dependence of IL2 levels on Shield-1 dose, HCT116 cells were plated onto a 96-well plate and treated with varying concentrations of Shield-1. Media was then collected from cells and IL2 levels were quantified using IL2 ELISA (FIG. 20). IL2 increased with increase in Shield-1 concentration and plateaued at higher Shield-1 dose levels. The ECK of Shield-1 was determined to be 50 nM

HEK293T cells = assay: IL12-p40 ELISA, Shield-1 dose and cell number dependent IL12 induction; assay type: cell-based, human; details: OT-IL12-004 transduced HEK293T cells, 24 hours
Procedure: Following overnight incubation, cells were treated with growth medium containing 0 to 10 μM Shield-1 for 24 hours. Media was then collected, diluted 400 fold and FKBP-IL12 levels were measured using IL12-p40 ELISA.

HCT-116 cells [1] = assay: Luciferase expression by western blotting; assay type: cell-based; details: HCT-116 stably transduced; 1 μM Shield-1 or 10 μM Trimethoprim or vehicle, 24 hours; FIG. 22A
Procedure: DD regulated luciferase can be used to track cells in vivo e.g. T cells. Firefly luciferase or Renilla luciferase may be utilized as the payload. HCT-116 cells were stably transduced with the constitutive (OT-RLuc-001) or DD regulated constructs (OT-RLuc-002, OT-RLuc-003, OT-RLuc-004, OT-RLuc-005 and OT-RLuc-006). Cells were treated with 1 μM Shield-1, or 10 μM Trimethoprim or vehicle control for 24 hours and luciferase expression and activity was measured. Luciferase expression was measured via western blotting using Anti-Renilla luciferase and anti-Firefly luciferase antibodies (Abcam, Cambridge, UK). Blots were also probed with anti-GAPDH antibody to ensure even protein loading in all samples.

HEK-Blue sensor cells = assay: HEK-Blue sensor cell assay for functional IL12 (Quanti-Blue); assay type: cell-based; details: HEK 293T transfected with 200 ng plasmid, 10 μM Shield-1 24 hours; media on HEK Blue sensor cells; FIG. 21A
Procedure: HEK-Blue sensor cells (InvivoGen, San Diego, Calif.) were utilized to evaluate whether DD regulated IL12 is capable of regulating signaling downstream of IL12. In these cells, the IL12 receptor, STAT4 and downstream transcriptional elements are tied to a reporter gene such that IL12 signaling can be monitored. To evaluate production of functional IL12, one million HEK 293T were transfected with 200 ng of OT-IL-12-003 plasmid using Lipofectamine 2000 (Thermo Fisher Scientific, Waltham, Mass.). 48 hours after transfection, cells were treated with growth media containing 10 μM Shield-1, incubated for another 24 hours, following which, media was collected. […] After overnight incubation, 20 μl media was removed from each well and incubated with 180 μl Quanti-Blue reagent (InvivoGen, San Diego, Calif.) for 30 minutes at 37° C. Absorption was measured at 620 nm using a spectrophotometer. […] Functional IL12 concentrations were determined by comparing the optical density of each sample with IL12 standard curve.
The dependence of functional IL12 production on the dose of Shield-1 used was also evaluated. […] Absorption was measured at 620 nm using a spectrophotometer. […] Functional IL12 concentrations were determined by comparing the optical density of each sample with IL12 standard curve.

HCT-116 cells [2] = assay: Luciferase activity, luminescence reading; assay type: cell-based; details: 1 μM Shield-1 or 10 μM Trimethoprim or vehicle, 24 hours; coelentrazine or luciferin substrate; FIG. 22B
Procedure: Ligand dependent activity of Renilla and firefly luciferase constructs was also measured in using coelentrazine and luciferin substrates respectively. Cells were treated with 1 μM Shield-1, or 10 μM Trimethoprim or vehicle control for 24 hours, lysed with assay lysis buffer and incubated with the luciferase substrate. Luciferase activity was measured as luminescence reading using a luminometer and the values were compared to control comprising of lysis buffer and substrate.

## CC[C@H](C(=O)N1CCCC[C@H]1C(=O)O[C@H](CCc1ccc(OC)c(OC)c1)c1cccc(OCCN2CCOCC2)c1)c1cc(OC)c(OC)c(OC)c1 [Shield-1]
HCT116 cells
  EC50: 50 nM
HEK293T cells
  Shield-1 dose up to which IL12 induction increased, then plateaued: 1 µM

## OT-FLuc-002: FKBP (F36V, 106P); linker (EF); Fluc; SEQ ID NO 213373
HCT-116 cells [1]
  Luciferase expression, ligand dependent stabilization (western blotting): modest stabilization

## OT-IL12-003: p40 signal sequence; FKBP (F36V, L106P); furin (SARNRQKRS); p40; linker ((G4S)3); p35; SEQ ID NO 213301
HEK-Blue sensor cells
  Media dilution at which measurable levels of functional IL12 were reached: 640 fold

## OT-RLuc-003: FKBP (F36V, 106P); linker (SG); Renilla Luc; SEQ ID NO 213374
HCT-116 cells [1]
  Luciferase expression, ligand dependent stabilization (western blotting): strong Shield-1 dependent stabilization

B1: OT-RLuc-001: Renilla Luc (constitutive); SEQ ID NO 213372 (protein)
chain: MTSKVYDPEQRKRMITGPQWWARCKQMNVLDSFINYYDSEKHAENAVIFLHGNAASSYLWRHVVPHIEPVARCIIPDLIGMGKSGKSGNGSYRLLDHYKYLTAWFELLNLPKKIIFVGHDWGACLAFHYSYEHQDKIKAIVHAESVVDVIESWDEWPDIEEDIALIKSEEGEKMVLENNFFVETMLPSKIMRKLEPEEFAAYLEPFKEKGEVRRPTLSWPREIPLVKGGKPDVVQIVRNYNAYLRASDDLPKMFIESDPGFFSNAIVEGAKKFPNTEFVKVKGLHFSQEDAPDEMGKYIKSFVERVLKNEQ
HCT-116 cells [2]
  Luciferase activity (luminescence reading): high luciferase activity both in the presence and absence of ligand
HCT-116 cells [1]
  Luciferase expression, ligand dependent stabilization (western blotting): expression of Renilla luciferase both in the presence and absence of ligand

B2: OT-RLuc-004: ecDHFR (R12Y, Y100I); linker (SG); Renilla Luc; SEQ ID NO 213375 (protein)
chain: MISLIAALAVDYVIGMENAMPWNLPADLAWFKRNTLNKPVIMGRHTWESIGRPLPGRKNIILSSQPGTDDRVTWVKSVDEAIAACGDVPEIMVIGGGRVIEQFLPKAQKLYLTHIDAEVEGDTHFPDYEPDDWESVFSEFHDADAQNSHSYCFEILERRSGTSKVYDPEQRKRMITGPQWWARCKQMNVLDSFINYYDSEKHAENAVIFLHGNAASSYLWRHVVPHIEPVARCIIPDLIGMGKSGKSGNGSYRLLDHYKYLTAWFELLNLPKKIIFVGHDWGACLAFHYSYEHQDKIKAIVHAESVVDVIESWDEWPDIEEDIALIKSEEGEKMVLENNFFVETMLPSKIMRKLEPEEFAAYLEPFKEKGEVRRPTLSWPREIPLVKGGKPDVVQIVRNYNAYLRASDDLPKMFIESDPGFFSNAIVEGAKKFPNTEFVKVKGLHFSQEDAPDEMGKYIKSFVERVLKNEQ
HCT-116 cells [1]
  Luciferase expression, ligand dependent stabilization (western blotting): modest stabilization

B3: OT-RLuc-005: Renilla Luc; linker (SG); FKBP (E31G, F36V, R71G, K105E); SEQ ID NO 213376 (protein)
chain: MTSKVYDPEQRKRMITGPQWWARCKQMNVLDSFINYYDSEKHAENAVIFLHGNAASSYLWRHVVPHIEPVARCIIPDLIGMGKSGKSGNGSYRLLDHYKYLTAWFELLNLPKKIIFVGHDWGACLAFHYSYEHQDKIKAIVHAESVVDVIESWDEWPDIEEDIALIKSEEGEKMVLENNFFVETMLPSKIMRKLEPEEFAAYLEPFKEKGEVRRPTLSWPREIPLVKGGKPDVVQIVRNYNAYLRASDDLPKMFIESDPGFFSNAIVEGAKKFPNTEFVKVKGLHFSQEDAPDEMGKYIKSFVERVLKNEQSGGVQVETISPGDGRTFPKRGQTCVVHYTGMLGDGKKVDSSRDRNKPFKFMLGKQEVIRGWEEGVAQMSVGQGAKLTISPDYAYGATGHPGIIPPHATLVFDVELLELE
HCT-116 cells [1]
  Luciferase expression, ligand dependent stabilization (western blotting): modest stabilization

B4: OT-RLuc-006: Renilla Luc; linker (SG); ecDHFR (R12Y, Y100I); SEQ ID NO 213377 (protein)
chain: MTSKVYDPEQRKRMITGPQWWARCKQMNVLDSFINYYDSEKHAENAVIFLHGNAASSYLWRHVVPHIEPVARCIIPDLIGMGKSGKSGNGSYRLLDHYKYLTAWFELLNLPKKIIFVGHDWGACLAFHYSYEHQDKIKAIVHAESVVDVIESWDEWPDIEEDIALIKSEEGEKMVLENNFFVETMLPSKIMRKLEPEEFAAYLEPFKEKGEVRRPTLSWPREIPLVKGGKPDVVQIVRNYNAYLRASDDLPKMFIESDPGFFSNAIVEGAKKFPNTEFVKVKGLHFSQEDAPDEMGKYIKSFVERVLKNEQSGISLIAALAVDYVIGMENAMPWNLPADLAWFKRNTLNKPVIMGRHTWESIGRPLPGRKNIILSSQPGTDDRVTWVKSVDEAIAACGDVPEIMVIGGGRVIEQFLPKAQKLYLTHIDAEVEGDTHFPDYEPDDWESVFSEFHDADAQNSHSYCFEILERR
HCT-116 cells [1]
  Luciferase expression, ligand dependent stabilization (western blotting): modest stabilization
